Test results reported in the NIST ThermoML archive (doi:10.1021/je800664z).

Test: xn = mol fraction of the nth substance listed
Settings: for surface tension liquid-gas: Capillary rise; for mass density / viscosity: 101 kPa, Liquid

C1COCO1 [1,3-dioxolane] + CC(C)CC(C)(C)C
Settings | mass density, 288.15 K [kg/m3] | mass density, 298.15 K [kg/m3] | mass density, 308.15 K [kg/m3] | surface tension liquid-gas, 288.15 K [mN/m] | surface tension liquid-gas, 298.15 K [mN/m] | surface tension liquid-gas, 308.15 K [mN/m] | viscosity, 288.15 K [mPa·s] | viscosity, 298.15 K [mPa·s] | viscosity, 308.15 K [mPa·s]
x1 = 0.0501 | 704.03 | 695.41 | 686.72 | 19.37 | 18.57 | 17.58 | 0.529 | 0.48 | 0.431
x1 = 0.1 | 712.38 | 703.47 | 694.59 | 19.55 | 18.75 | 17.78 | 0.528 | 0.478 | 0.432
x1 = 0.15 | 721.22 | 712.11 | 703.08 | 19.7 | 18.92 | 17.93 | 0.527 | 0.478 | 0.432
x1 = 0.2 | 730.61 | 721.42 | 712.28 | 19.83 | 19.07 | 18.08 | 0.527 | 0.479 | 0.433
x1 = 0.25 | 740.66 | 731.37 | 722.16 | 19.97 | 19.2 | 18.23 | 0.528 | 0.479 | 0.433
x1 = 0.3 | 751.51 | 742.15 | 732.81 | 20.08 | 19.33 | 18.37 | 0.532 | 0.48 | 0.433
x1 = 0.35 | 763.25 | 753.76 | 744.31 | 20.22 | 19.47 | 18.53 | 0.536 | 0.483 | 0.434
x1 = 0.4 | 775.92 | 766.31 | 756.72 | 20.38 | 19.63 | 18.72 | 0.541 | 0.487 | 0.438
x1 = 0.45 | 789.66 | 779.89 | 770.11 | 20.57 | 19.82 | 18.93 | 0.547 | 0.492 | 0.442
x1 = 0.5 | 804.59 | 794.63 | 784.66 | 20.78 | 20.03 | 19.15 | 0.554 | 0.498 | 0.447
x1 = 0.55 | 820.88 | 810.69 | 800.5 | 21.02 | 20.3 | 19.42 | 0.561 | 0.504 | 0.453
x1 = 0.6 | 838.7 | 828.25 | 817.8 | 21.32 | 20.6 | 19.72 | 0.568 | 0.511 | 0.46
x1 = 0.65 | 858.32 | 847.56 | 836.8 | 21.63 | 20.93 | 20.05 | 0.576 | 0.519 | 0.467
x1 = 0.7 | 879.84 | 868.87 | 857.72 | 22 | 21.32 | 20.47 | 0.585 | 0.527 | 0.475
x1 = 0.75 | 903.63 | 892.42 | 880.96 | 22.43 | 21.8 | 20.95 | 0.595 | 0.536 | 0.484
x1 = 0.8 | 929.95 | 918.53 | 906.76 | 23 | 22.4 | 21.57 | 0.605 | 0.546 | 0.494
x1 = 0.85 | 959.26 | 947.66 | 935.7 | 23.85 | 23.32 | 22.6 | 0.617 | 0.557 | 0.505
x1 = 0.9 | 992.11 | 980.35 | 968.03 | 25.35 | 24.9 | 24.22 | 0.632 | 0.571 | 0.515
x1 = 0.95 | 1029.19 | 1017.39 | 1004.78 | 28.33 | 27.6 | 26.78 | 0.651 | 0.584 | 0.526
x1 = 1 | 1071.24 | 1059.29 | 1046.85 | 34.37 | 32.55 | 30.67 | 0.667 | 0.596 | 0.535

C1COCO1 [1,3-dioxolane] + CC(C)O
Settings | mass density, 288.15 K [kg/m3] | mass density, 298.15 K [kg/m3] | mass density, 308.15 K [kg/m3] | surface tension liquid-gas, 288.15 K [mN/m] | surface tension liquid-gas, 298.15 K [mN/m] | surface tension liquid-gas, 308.15 K [mN/m] | viscosity, 288.15 K [mPa·s] | viscosity, 298.15 K [mPa·s] | viscosity, 308.15 K [mPa·s]
x1 = 0.05 | 802.01 | 793.33 | 784.33 | 21.98 | 21.22 | 20.48 | 2.285 | 1.69 | 1.299
x1 = 0.1 | 814.65 | 805.66 | 796.38 | 22.23 | 21.52 | 20.8 | 1.846 | 1.429 | 1.126
x1 = 0.15 | 827.45 | 818.26 | 808.69 | 22.53 | 21.8 | 21.1 | 1.564 | 1.237 | 0.999
x1 = 0.2 | 840.43 | 831.03 | 821.18 | 22.85 | 22.1 | 21.42 | 1.371 | 1.099 | 0.895
x1 = 0.25 | 853.56 | 843.97 | 833.89 | 23.2 | 22.4 | 21.7 | 1.221 | 0.992 | 0.817
x1 = 0.3001 | 866.86 | 857.09 | 846.77 | 23.57 | 22.75 | 22 | 1.105 | 0.908 | 0.756
x1 = 0.35 | 880.33 | 870.34 | 859.8 | 23.95 | 23.12 | 22.33 | 1.012 | 0.84 | 0.706
x1 = 0.4 | 893.96 | 883.74 | 873.01 | 24.38 | 23.5 | 22.7 | 0.934 | 0.784 | 0.667
x1 = 0.45 | 907.75 | 897.31 | 886.41 | 24.83 | 23.93 | 23.12 | 0.874 | 0.74 | 0.637
x1 = 0.5 | 921.7 | 911.08 | 899.98 | 25.32 | 24.42 | 23.55 | 0.823 | 0.72 | 0.609
x1 = 0.55 | 935.82 | 925.02 | 913.73 | 25.85 | 24.92 | 24.03 | 0.779 | 0.671 | 0.586
x1 = 0.6 | 950.11 | 939.14 | 927.66 | 26.43 | 25.48 | 24.55 | 0.745 | 0.645 | 0.568
x1 = 0.65 | 964.58 | 953.43 | 941.79 | 27.05 | 26.1 | 25.15 | 0.719 | 0.626 | 0.555
x1 = 0.7001 | 979.2 | 967.87 | 956.09 | 27.75 | 26.77 | 25.8 | 0.697 | 0.611 | 0.542
x1 = 0.75 | 994.01 | 982.51 | 970.57 | 28.57 | 27.53 | 26.5 | 0.682 | 0.599 | 0.531
x1 = 0.8 | 1009 | 997.36 | 985.26 | 29.47 | 28.38 | 27.28 | 0.671 | 0.592 | 0.525
x1 = 0.85 | 1024.2 | 1012.38 | 1000.13 | 30.5 | 29.33 | 28.1 | 0.657 | 0.587 | 0.52
x1 = 0.9 | 1039.61 | 1027.67 | 1015.21 | 31.63 | 30.37 | 28.95 | 0.636 | 0.585 | 0.519
x1 = 0.95 | 1055.25 | 1043.29 | 1030.71 | 32.95 | 31.43 | 29.82 | 0.635 | 0.587 | 0.523
x1 = 1 | 1071.24 | 1059.29 | 1046.85 | 34.37 | 32.55 | 30.67 | 0.667 | 0.596 | 0.535
